In patent publication US20090104126A1, “Sulfamate Compounds and Uses Thereof” (Solvay Pharmaceuticals GmbH, priority 2007, published 2009):
Where two headings read alike, the source gives them in different places. Marks after values point to notes of the source that are not given here.

How the values were obtained:
[1] = target: T1, recombinant human carbonic anhydrase isoenzyme VB (Homo sapiens, UniProt Q9Y2D0); assay: In vitro inhibition of human carbonic anhydrase isoenzyme VB (dansylamide fluorescence); format: biochemical; settings: final compound concentration 10 μM
T1 construct: purchased R&D Systems
T1 sequence (Q9Y2D0 34-317): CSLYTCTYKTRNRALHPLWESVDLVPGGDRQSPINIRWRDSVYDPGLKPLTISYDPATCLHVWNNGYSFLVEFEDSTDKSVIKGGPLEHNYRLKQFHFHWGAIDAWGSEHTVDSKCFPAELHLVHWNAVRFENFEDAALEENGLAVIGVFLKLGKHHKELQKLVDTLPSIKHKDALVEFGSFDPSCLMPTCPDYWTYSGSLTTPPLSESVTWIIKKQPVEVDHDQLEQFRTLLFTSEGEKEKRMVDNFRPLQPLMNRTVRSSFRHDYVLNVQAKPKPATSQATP
Experimental: (§1) The test compounds of general Formula I in 96 well microplates were diluted with aqua bidest by using an automatic pipettor (CyBiWell®). From the different dilution plates, aliquots of 20 μl were transferred to the 96 well black assay plates with a pipetting station (Tecan Genesis®). In a second step, 148 μl of potassium phosphate buffer (20 mM, pH 7.4) was added, and as a third step, 20 μl of enzyme solution (1 μM human carbonic anhydrase isoenzyme I from erythrocytes (Sigma-Aldrich) or human carbonic anhydrase II from erythrocytes (Sigma Aldrich), or recombinant human carbonic anhydrase isoenzyme VB (R&D Systems), dissolved in potassium phosphate buffer) incubated for 60 min at room temperature and the fluorescence signal (Tecan Ultra® fluorescence reader; excitation wavelength: 280 nm; emission wavelength: 465 nm) read at the end of the preincubation period (FLU-1). After the preincubation time, 20 μl of aqueous dansylamide solution (1 mM dansylamide (Sigma-Aldrich), dissolved in hydrochloric acid) were added and the fluorescence signal read every 10 min for a period of 60 min at 37° C. For calculation, the fluorescence data of the time point 60 min (FLU-2) were used. The total volume of assay mixture amounted to 208 μl. […] Each microplate also contained blanks without compound and enzyme, controls without compound and ethoxzolamide (final concentration 5×10^-[…]) as validation standard compound. All data reflect single measurements. Data were expressed as % inhibition after calculation by the formula: [formula] […] Concentration action figures were calculated by applying the Prism algorithm for nonlinear regression (curve-fit): sigmoidal dose response with variable slope and the constraints: top: 100 and bottom 0.

[2] = target: T2, human carbonic anhydrase II from erythrocytes (Homo sapiens, UniProt P00918); assay: In vitro inhibition of human carbonic anhydrase II (dansylamide fluorescence); format: biochemical
T2 construct: human carbonic anhydrase II from erythrocytes (Sigma Aldrich); purchased Sigma Aldrich; host or cells: human erythrocytes
Experimental: as §1

[3] = target: T3, human carbonic anhydrase isoenzyme I from erythrocytes (Homo sapiens, UniProt P00915); assay: In vitro inhibition of human carbonic anhydrase isoenzyme I (dansylamide fluorescence); format: biochemical
T3 construct: human carbonic anhydrase isoenzyme I from erythrocytes (Sigma-Aldrich); purchased Sigma-Aldrich; host or cells: human erythrocytes
T3 sequence (P00915 whole entry): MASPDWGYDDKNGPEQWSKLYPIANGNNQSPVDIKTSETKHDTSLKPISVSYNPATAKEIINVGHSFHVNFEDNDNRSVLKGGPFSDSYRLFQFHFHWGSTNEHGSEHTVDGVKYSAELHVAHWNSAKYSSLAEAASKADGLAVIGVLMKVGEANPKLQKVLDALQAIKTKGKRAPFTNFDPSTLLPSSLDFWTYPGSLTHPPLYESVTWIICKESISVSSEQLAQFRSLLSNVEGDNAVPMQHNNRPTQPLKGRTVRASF
Experimental: as §1

mouse = settings: for number of deaths after ECS: 20 mice per group, vehicle 1; for ECS intensity administered, mean ± s.e.m.: vehicle 36.5 ± 1.0
Experimental: The method, which detects pro-convulsant or anti-convulsant activity, follows that described by Swinyard et al. (J. Pharmacol. Exp. Ther. 1952, 106, 319-330). Mice were administered ECS (rectangular current, 0.4 s, 50 Hz) via corneal electrodes connected to a constant current shock generator (Ugo Basile: Type 7801).
A group wherein the vehicle is administered orally 60 minutes before the ECS serves a control. Diazepam (8 mg/kg p.o.), administered under the same experimental conditions, served as a positive anti-convulsive reference substance.
If there were also no convulsions in animal no 2, then the current was further increase in the following animals (increases of 10 mA) until the first tonic convulsion was observed. Once the first tonic convulsion was observed, the intensity of ECS was decreased by 5 mA for the next animal and then the intensity was decreased or increased by 5 mA from animal to animal depending on whether or the previous animal convulsed or not. The minimum intensity given was 25 mA and the maximum intensity given was 95 mA. The electroconvulsive shock threshold was determined as the mean current administered in the last 20 mice.
The number of deaths is also recorded approximately 30 minutes after the animal has been tested for convulsions. The test was performed blind. A positive percent change indicates an anticonvulsant effect. A negative percent change indicates a proconvulsant effect.
Quantitative data were analyzed by comparing treated groups with vehicle control using unpaired Student's t tests. Quantal data were analyzed by comparing treated groups with vehicle control using Fisher's Exact Probability tests.

[4] = test system: embyronal hippocampal neurons; assay: Effect on neurite outgrowth from hippocampal neurons; format: cell-based, rat; settings: for neurite mean length (% of control): 3 days exposure, two cultures normalized
Experimental: Neurite outgrowth is an important parameter to evaluate the neurotrophic potency of a compound. […] The hippocampal neurons from pregnant Wistar female rats were dissociated by trypsinization for 30 min at 37° C. (trypsin-EDTA, Gibco) in presence of DNAse I (Roche, Meylan). The reaction was stopped by addition of medium of Eagle modified by Dulbecco (DMEM; Gibco) with 10% of fetal bovine serum (Gibco). The suspension was triturated with a 10-ml pipette and using a 21G needle syringe and centrifuged at 350×g for 10 min at room temperature. The resulting pellet was re-suspended in culture medium containing Neurobasal medium (Gibco) with 2% of B27 supplement (Gibco) and 2 mM of glutamine (Gibco). Viable cells were counted in a Neubauer cytometer using the trypan blue exclusion test (Sigma) and seeded on the basis of 30 000 cells per Petri dish (Nunc) precoated with poly-L-lysine (Sigma). Cells were allowed to adhere 2 h and maintained in a humidified incubator at 37° C. in 5% CO2-95% air atmosphere.
After adhesion, vehicle and test compound at different concentrations (1 μM, 3 μM, 10 μM and 30 μM) were added to the medium. BDNF (50 ng/ml, 3.7 nM) was included as positive control for neurite growth. The test compound was tested in two independent cultures in parallel with control and BNDF cultures.
After the 3 days exposure of the neurons to the test compounds, cultures were washed in phosphate-buffered saline (PBS, Gibco) and fixed using 2.5% glutaraldehyde in PBS. Several pictures (˜80) of cells with neurites without any branching were taken per condition using a digital camera (Coolpix 995; Nikon) fixed on the microscope (Nikon, objective 40×). Neurites were outlined on computer screen using imaging software (Image-Pro Plus, France), which automatically calculates the length.

male C57BI/6 mice = assay: Acute in vivo food intake test in mice; settings: high caloric diet, 50 mg/kg/day oral gavage twice daily for 3 days, day 3
Experimental: The studies were carried out in male C57BI/6 mice (n=12 per group). The mice were kept on an inverted 12/12 h light/dark cycle (lights on 22:00). They were allowed food (high caloric diet) and water ad libitum. Food intake and water consumption was measured daily. The test compound of general Formula I was suspended in 1% methyl hydroxyethyl cellulose in water and 0.1% (v/v) of poloxamer 188 and administered by oral gavage at a dose of 50 mg/kg/day twice daily for 3 days. One half of the dose was administered at 8.00-10.00 h; the remaining half of the dose was administered between 14.00-15.00 h.

[5] = test system: STZ-diabetic male Sprague Dawley rats; assay: Diabetic-induced neuropathic pain: cold bath test (cold allodynia) in STZ rats; format: in vivo, rat; settings: day 10
[6] = test system: STZ-diabetic male Sprague Dawley rats; assay: Diabetic-induced neuropathic pain: warm plate (38° C.) test (warm allodynia) in STZ rats; format: in vivo, rat; settings: day 10
[7] = test system: embyronal hippocampal neurons; assay: Effect on neurite outgrowth from hippocampal neurons; format: cell-based, rat; settings: BDNF 1.85 nM (positive control), 3 days exposure
[8] = final compound concentration 1 μM
[9] = final compound concentration 0.1 μM

Molecule: CC1(C)[C@H]2CC[C@@H](COS(N)(=O)=O)[C@@H]1C2 [Compound 4, [(1S,2R,5S)-6,6-dimethylbicyclo[3.1.1]hept-2-yl]methylsulfamate]
- % Inhibition [1]: 53%
- % Inhibition [2, 8]: 72%
- % Inhibition [3, 8]: 80%

Molecule: (4S)-bicyclo[2.2.1]hept-5-en-2-ylmethylsulfamate [Compound 6]
- % Inhibition [1]: 40%
- % Inhibition [2, 8]: 76%
- % Inhibition [3, 8]: 94%

Molecule: CC1(C)[C@H]2CC[C@@H](CCOS(N)(=O)=O)[C@@H]1C2 [Compound 3, [(1S,2S,5S)-6,6-dimethylbicyclo[3.1.1]hept-2-yl]ethyl-sulfamate]
- % Inhibition [1]: 55%
- % Inhibition [2, 9]: 15%
- % Inhibition [3, 9]: 28%

Molecule: CN1C(=O)CN=C(c2ccccc2)c2cc(Cl)ccc21 [Diazepam, reference compound]
- ECS intensity % change from control (mouse; 8 mg/kg p.o. −60 min): +124%
- number of deaths after ECS (mouse; 8 mg/kg p.o. −60 min): 0
- ECS intensity administered, mean ± s.e.m. (mouse; 8 mg/kg p.o. −60 min): 81.8 ± 3.0 mA

Molecule: (1R,4S)-bicyclo[2.2.1]hept-2-yl-methylsulfamate [Compound 5]
- % Inhibition [1]: 41%
- % Inhibition [2, 8]: 77%
- % Inhibition [3, 8]: 91%

Molecule: CC1(C)[C@@H]2CC[C@@H](COS(N)(=O)=O)[C@H]1C2 [Compound 2, [(1R,2R,5R)-6,6-dimethylbicyclo[3.1.1]hept-2-yl]methyl-sulfamate]
- inhibition at 10 µM [1]: 75%
- inhibition at 0.1 µM [2, 9]: 33%
- inhibition at 0.1 µM [3, 9]: 70%

Molecule: CC1(C)[C@H]2CC[C@H](COS(N)(=O)=O)[C@@H]1C2 [Compound 1, [(1S,2S,5S)-6,6-dimethylbicyclo[3.1.1]hept-2-yl]methyl-sulfamate]
- neurite mean length (% of control) ([4]; 1 μM): 110.9 % of control
- neurite mean length (% of control) ([4]; 3 μM): 108.9 % of control
- neurite mean length (% of control) ([4]; 10 μM): 113.2 % of control
- neurite mean length (% of control) ([4]; 30 μM): 114.5 % of control
- inhibition at 10 µM [1]: 70%
- food intake [% of control] (male C57BI/6 mice): 69.4% (day 3) % of control
- % inhibition (compared to STZ/vehicle group), cold bath test ([5]; 10 mg/kg p.o. 1 h before test): 62* %
- % inhibition (compared to STZ/vehicle group), cold bath test ([5]; 30 mg/kg p.o. 1 h before test): 58* %
- % inhibition (compared to STZ/vehicle group), cold bath test ([5]; 50 mg/kg p.o. 1 h before test): 72* %
- inhibition at 0.1 µM [2, 9]: 56%
- % inhibition (compared to STZ/vehicle group), warm plate test ([6]; 10 mg/kg p.o. 1 h before test): 53%
- % inhibition (compared to STZ/vehicle group), warm plate test ([6]; 30 mg/kg p.o. 1 h before test): 59* %
- % inhibition (compared to STZ/vehicle group), warm plate test ([6]; 50 mg/kg p.o. 1 h before test): 64* %
- number of deaths after ECS (mouse; 10 mg/kg p.o. −60 min): 2
- ECS intensity administered, mean ± s.e.m. (mouse; 10 mg/kg p.o. −60 min): 40.0 ± 1.2 mA
- number of deaths after ECS (mouse; 30 mg/kg p.o. −60 min): 0
- ECS intensity administered, mean ± s.e.m. (mouse; 30 mg/kg p.o. −60 min): 43.5 ± 1.5 mA
- number of deaths after ECS (mouse; 100 mg/kg p.o. −60 min): 1
- ECS intensity administered, mean ± s.e.m. (mouse; 100 mg/kg p.o. −60 min): 88.0 ± 2.1 mA
- inhibition at 0.1 µM [3, 9]: 85%

B1: BDNF: BDNF (50 ng/ml, 3.7 nM) was included as positive control for neurite growth (protein, UniProt P23560 19-247, looked up)
Neurotrophic factor BDNF …: APMKEANIRGQGGLAYPGVRTHGTLESVNGPKAGSRGLTSLADTFEHVIEELLDEDQKVRPNEENNKDADLYTSRVMLSSQVPLEPPLLFLLEEYKNYLDAANMSMRVRRHSDPARRGELSVCDSISEWVTAADKKTAVDMSGGTVTVLEKVPVSKGQLKQYFYETKCNPMGYTKEGCRGIDKRHWNSQCRTTQSYVRALTMDSKKRIGWRFIRIDTSCVCTLTIKRGR
- increase in neurite length normalized by mean control neurite length ([4]; 50 ng/ml BDNF, both cultures normalized): 16.4%
- mean increase in neurite length ([4]; 50 ng/ml BDNF, first culture): 24.5 μm
- neurite length (mean±SEM) ([4]; 50 ng/ml BDNF, first culture, n=79 (control 105.7±3.2)): 131.6±3.1 μm
- mean increase in neurite length ([4]; 50 ng/ml BDNF, second culture): 8.6 μm
- neurite length (mean±SEM) ([4]; 50 ng/ml BDNF, second culture, n=82 (control 109.3±3.1)): 118.7±2.8 μm
- neurite mean length (% of control) [7]: 116.4 % of control
